Results reported in US20240415790A1, “A COMPOSITION FOR USE IN THE TREATMENT OF INTERVERTEBRAL DISC HERNIATION” (STAYBLE THERAPEUTICS AB, priority 2020, published 2024).

Legend:
[1] = tested on: patients with chronic discogenic low back pain; assay: Randomized placebo-controlled single ascending dose study, safety and tolerability of intradiscal injection; format: in vivo, human
Text: The study was a randomized, double-blinded, placebo-controlled, single ascending dose study with the primary objective to evaluate safety and tolerability following intradiscal injection of LA in Omnipaque or placebo (Omnipaque) in 15 patients with chronic discogenic low back pain. The secondary objective was to assess effects on the NP and disc height using T2-weighted MRI. […] Prior to dose escalation, the safety review committee assessed all safety data up to Visit 3 (1 week after treatment). In case of any safety or tolerability concerns, dosing could be discontinued, or the planned dose could be lowered. The test product in this study was containing the active ingredient (S)-LA, which was provided to the site as a sterile solution in a syringe for single use. The LA doses administered were 45, 90 and 180 mg in a volume of 1.5 mL, corresponding to LA concentrations of 30, 60 and 120 mg/mL. The formulation for administration was prepared extempore and contained the contrast agent iohexol (Omnipaque™) and water for injection. The final concentration of iohexol in the injected solution was 388 mg/mL. Small amounts of tromethamine, Na2Ca edetate and HCl were also present. The solution was clear and colourless to slightly coloured. At the treatment day, patients received premedication with a sedative or anxiolytic and antibiotics, given as an i.v. infusion approximately 15 min before the intradiscal injection. The patient was placed in the right lateral decubitus position and injection was done using the two-needle technique under fluoroscopy guidance. Once correct intradiscal needle placement had been confirmed, a small volume (approximately 0.5 mL) of the formulation was first injected slowly (during half a minute) to verify that the distribution of the injectate was confined to the disc and that there was no leakage. If no leakage had occurred within half a minute, this procedure was repeated twice until the entire volume (1.5 mL) had been injected. If there was any leakage from the disc during injection, either after injection of a small volume or the entire volume (1.5 mL), the injection was interrupted. […] All patients stayed overnight at the clinic after the injection, for observation and safety assessments. After leaving the clinic, patients were to be treated with analgesics and/or other measures according to standard clinical practice. They were also given advice on restricted physical activity during the first week. Physical examination, blood pressure, heart rate, electrocardiogram (ECG), clinical chemistry and hematology were assessed using routine clinical methods. Pain during and 15 min after injection was measured using a VAS scale (0-100 mm) and the patient reported whether or not the pain reproduced the pain normally experienced in terms of location and type of pain. The distribution of Omnipaque within the IVD was documented according to the Dallas discogram scale. Local site reactions to the injection were noted, and AEs were graded for seriousness, intensity, and causality to the treatment. SAEs were defined according to the International Conference of Harmonisation guideline E2A.

collagen II = assay: Immunohistochemical analysis of collagen II in porcine IVD; format: in vivo; conditions: pig, LA 60 mg/mL, treated vs untreated IVDs
Procedure: (§1) Since effects of LA on the NP in the subsequent clinical study was planned to be assessed using MRI, the third series focused on the effects of LA (0.2 mL, 60 mg/mL) on sclerotization as measured by T2-weighted MRI. In addition, effects of LA on the expression of collagen I and II were studied by immunohistochemistry (IHC). The macroscopic changes after LA at 60 mg/mL were similar to those described above. The tissue was dehydrated in graded ethanol and embedded in paraffin. Sections were cut on a microtome, dewaxed, and incubated with polyclonal primary antibodies against collagen I (Abcam 34710) or II (Abcam 34712). The antibodies were diluted 250 (collagen I) or 200 (collagen II) times in phosphate-buffered saline containing 1% bovine serum albumin. Incubation was done at room temperature for 60 min. The sections were then incubated for 30 min at room temperature with horseradish peroxidase-conjugated secondary antibodies (Mach 2 Uni HRP, Biocare Medical) and immunoreactivity was visualized using diaminobenzidine (Biocare Medical).

collagen I = assay: Immunohistochemical analysis of collagen I in porcine IVD; format: in vivo; conditions: pig, LA 60 mg/mL, treated vs untreated IVDs
Procedure: as §1

CC(O)C(=O)O (stereo not drawn) [LA, lactic acid]
no clear difference: Collagen II immunoreactivity (collagen II)
1: Adverse events by causality, Probable, m number of events ([1]; LA 30 mg/ml (n = 3)) | Adverse events by severity, Mild, m number of events ([1]; LA 60 mg/ml (n = 3)) | Adverse events by causality, Possible, m number of events ([1]; LA 120 mg/ml (n = 3))
1 (33%): Adverse events by causality, Probable, n (%) number of patients ([1]; LA 30 mg/ml (n = 3)) | Adverse events by severity, Mild, n (%) number of patients ([1]; LA 30 mg/ml (n = 3)) | Adverse events by severity, Moderate, n (%) number of patients ([1]; LA 30 mg/ml (n = 3)) | Adverse events by severity, Mild, n (%) number of patients ([1]; LA 60 mg/ml (n = 3)) | Adverse events by causality, Possible, n (%) number of patients ([1]; LA 120 mg/ml (n = 3)) | Adverse events by severity, Moderate, n (%) number of patients ([1]; LA 120 mg/ml (n = 3))
safe and tolerable: Safety and tolerability of the treatment ([1]; patients, intradiscal 45-180 mg)
strongly induced: Collagen I immunoreactivity in the NP (collagen I)
4: Any adverse event, m number of events ([1]; LA 30 mg/ml (n = 3)) | Adverse events by causality, Probable, m number of events ([1]; LA 120 mg/ml (n = 3))
3 (100%): Adverse events by causality, Probable, n (%) number of patients ([1]; LA 60 mg/ml (n = 3)) | Any adverse event, n (%) number of patients ([1]; LA 60 mg/ml (n = 3)) | Adverse events by severity, Mild, n (%) number of patients ([1]; LA 120 mg/ml (n = 3)) | Any adverse event, n (%) number of patients ([1]; LA 120 mg/ml (n = 3))
2 (67%): Adverse events by causality, Unlikely, n (%) number of patients ([1]; LA 30 mg/ml (n = 3)) | Any adverse event, n (%) number of patients ([1]; LA 30 mg/ml (n = 3)) | Adverse events by severity, Moderate, n (%) number of patients ([1]; LA 60 mg/ml (n = 3)) | Adverse events by causality, Probable, n (%) number of patients ([1]; LA 120 mg/ml (n = 3)) | Adverse events by causality, Unlikely, n (%) number of patients ([1]; LA 120 mg/ml (n = 3))
2: Adverse events by severity, Mild, m number of events ([1]; LA 30 mg/ml (n = 3)) | Adverse events by severity, Moderate, m number of events ([1]; LA 30 mg/ml (n = 3)) | Adverse events by severity, Moderate, m number of events ([1]; LA 60 mg/ml (n = 3)) | Adverse events by severity, Moderate, m number of events ([1]; LA 120 mg/ml (n = 3))
6: Adverse events by severity, Mild, m number of events ([1]; LA 120 mg/ml (n = 3))
8: Any adverse event, m number of events ([1]; LA 120 mg/ml (n = 3))
0: Adverse events by causality, Possible, m number of events ([1]; LA 30 mg/ml (n = 3)) | Adverse events by causality, Possible, n (%) number of patients ([1]; LA 30 mg/ml (n = 3)) | Adverse events by severity, Severe, m number of events ([1]; LA 30 mg/ml (n = 3)) | Adverse events by severity, Severe, n (%) number of patients ([1]; LA 30 mg/ml (n = 3)) | Any serious adverse event, m number of events ([1]; LA 30 mg/ml (n = 3)) | Any serious adverse event, n (%) number of patients ([1]; LA 30 mg/ml (n = 3)) | Adverse events by causality, Possible, m number of events ([1]; LA 60 mg/ml (n = 3)) | Adverse events by causality, Possible, n (%) number of patients ([1]; LA 60 mg/ml (n = 3)) | Adverse events by causality, Unlikely, m number of events ([1]; LA 60 mg/ml (n = 3)) | Adverse events by causality, Unlikely, n (%) number of patients ([1]; LA 60 mg/ml (n = 3)) | Adverse events by severity, Severe, m number of events ([1]; LA 60 mg/ml (n = 3)) | Adverse events by severity, Severe, n (%) number of patients ([1]; LA 60 mg/ml (n = 3)) | Any serious adverse event, m number of events ([1]; LA 60 mg/ml (n = 3)) | Any serious adverse event, n (%) number of patients ([1]; LA 60 mg/ml (n = 3)) | Adverse events by severity, Severe, m number of events ([1]; LA 120 mg/ml (n = 3)) | Adverse events by severity, Severe, n (%) number of patients ([1]; LA 120 mg/ml (n = 3)) | Any serious adverse event, m number of events ([1]; LA 120 mg/ml (n = 3)) | Any serious adverse event, n (%) number of patients ([1]; LA 120 mg/ml (n = 3))
3: Adverse events by causality, Unlikely, m number of events ([1]; LA 30 mg/ml (n = 3)) | Adverse events by causality, Probable, m number of events ([1]; LA 60 mg/ml (n = 3)) | Any adverse event, m number of events ([1]; LA 60 mg/ml (n = 3)) | Adverse events by causality, Unlikely, m number of events ([1]; LA 120 mg/ml (n = 3))
